Measurements reported in patent US20260035364A1, “BICYCLIC TETRAHYDROTHIAZEPINE DERIVATIVES” (Hoffmann-La Roche Inc., priority 2022, published 2026).
Where two headings read alike, the source gives them in different places.

Assays:
DGKalpha = DGKalpha (Homo sapiens, UniProt P23743); assay: In vitro DGK inhibition assay (ADP-Glo, liposomes), DGKalpha; format: biochemical; design: hDGKalpha(1-735)-N-His; His (N); made in house; host or cells: Sf21 insect cells (baculovirus); details: 4 nM DGK α, 25 μM ATP, 125 uM DLG in liposomes, 1 hour reaction
DGKalpha, sequence (P23743 whole entry): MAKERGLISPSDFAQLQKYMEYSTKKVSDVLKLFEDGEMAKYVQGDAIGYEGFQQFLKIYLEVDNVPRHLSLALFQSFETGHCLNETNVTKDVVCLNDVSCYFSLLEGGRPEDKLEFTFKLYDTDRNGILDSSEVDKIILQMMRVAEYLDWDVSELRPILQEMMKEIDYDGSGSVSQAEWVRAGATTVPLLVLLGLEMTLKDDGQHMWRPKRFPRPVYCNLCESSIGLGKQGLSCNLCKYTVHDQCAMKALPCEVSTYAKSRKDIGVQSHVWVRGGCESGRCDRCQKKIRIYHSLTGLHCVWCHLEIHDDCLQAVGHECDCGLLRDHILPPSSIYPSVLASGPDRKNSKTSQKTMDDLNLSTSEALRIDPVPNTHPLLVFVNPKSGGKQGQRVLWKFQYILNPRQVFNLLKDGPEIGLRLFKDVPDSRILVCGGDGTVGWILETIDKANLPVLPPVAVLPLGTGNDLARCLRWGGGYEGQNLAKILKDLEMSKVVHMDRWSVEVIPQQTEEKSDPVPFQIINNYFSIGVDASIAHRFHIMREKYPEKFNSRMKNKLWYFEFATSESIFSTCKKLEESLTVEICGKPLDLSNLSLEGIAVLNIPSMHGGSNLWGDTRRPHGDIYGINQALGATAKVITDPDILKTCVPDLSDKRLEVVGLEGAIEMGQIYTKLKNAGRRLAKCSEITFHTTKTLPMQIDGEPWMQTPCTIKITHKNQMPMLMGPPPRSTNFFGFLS
Description: (§1) DGK α and ζ kinases use ATP to phosphorylate the substrate 1,2-dilauroyl-sn-glycerol (DLG, incorporated in the liposomes). ATP is converted to ADP as a result of this enzymatic reaction. After the kinase reaction, an ATP-depletion reagent is added to terminate the kinase reaction and deplete any remaining ATP, leaving only ADP. Second, a detection reagent is added to simultaneously convert ADP to ATP and allow the newly synthesized ATP to be converted to light using a coupled luciferase/luciferin reaction.
Full length DGKA and Z were expressed in Sf21 insect cells by infecting the cells with the baculovirus stock at MOI of 2. Purification of both enzymes was performed as previously described by Takahashi et al., PeerJ, 2018 (Takahashi, D.; Sakane, F. Expression and purification of human diacylglycerol kinase alpha from baculovirus-infected insect cells for structural studies. PeerJ 2018, 6, No. e5449).
(§2) A concentrated liposome solution was prepared in assay buffer without DTT and BSA: 2 mM of DLG in 21 mM of total liposome (2 mM DLG/8 mM PS/11 mM PC). The reaction mixtures contain the assay buffer with a final DLG concentration of 125 uM ATP concentrations of 25 μM (for DGKA assay) or 50 μM (for DGKZ assay). The reactions were started by addition of DGK a and (kinases at 4 nM and 2 nM final concentrations, respectively. After 1 hour reaction, the amount of ADP formed was detected with the ADP-Glo kinase assay (Promega) according to the manufacturer instructions. Compounds were added in 11-points dose response, starting at […], 1:3 dilutions, with a final DMSO concentration of 2%. The multidrop combi was used as a liquid handler and luminescence was read with 0.5 s by the envision reader (PE).

primary human T-cells = assay: T-cell proliferation assay (CellTiter-Glo); format: cell-based; details: CD3 condition; for Emax: read-out: Emax proliferation (% activation); for EC50: proliferation after 5 days, CellTiter-Glo, read-out: Tcell Proliferation CD3 EC50
Description: Expanded primary human T-cells are thawed and cultured in RPMI 1640 (Gibco, #61870-010)+5% human serum (HS, Sigma, #H3667)+1 mM Sodium Pyruvate (Gibco, #11360-039)+50 μM 2-mercaptoethanol (Gibco, #31350-010) and 1× Pen-Strep (Life Technologies, #15140122) medium at density of 2 Mio/ml for 3 hours in 5% CO2, 37° C. and 95% humidity. For coating of plates, PBS++ only or PBS++ with CD3 antibody (concentration depending on donor and determined by CD3 titrations) is added 100 μl/well to Poly-D Lysine coated 96-well plates. Plates are sealed and incubated at room temperature for 3 hours on a table-top rocking platform. After incubation, plates are washed once with PBS−− and filled with 40 μl/well culture medium only. Compounds are then added (see next section) to medium only plates. After 3 hours of culturing the T-cells, cells are filtered through a cell strainer (Miltenyi Biotech, #130-041-407), counted again and concentration is adjusted to 1.25 Mio/ml.
Cells are then seeded 80 μl/well to the 40 µl/well including dispensed compounds according to plate layout. By adding cells, compounds are further diluted 1:3, and resulting in 100k cells/120 µl/well. After 48 hours 40 μl of supernatant is collected carefully from the top while not disturbing the cells. Cells are assessed for proliferation 5 days later by measuring […] using CellTiterGlo (Promega).
Compounds were added in a 5 or 6 pt dose response with the Tecan D300e Digital Dispenser, all conditions 3 times more concentrated than the end-concentration, since cells are added afterwards (80p1 cells to 40p1 prepared medium with treatment). The DR was starting at 20 μM or 10 μM final top concentration and a dilution factor of 3.333. The positive control was the reference compound A1 that was added in a dose response as well, additionally to 3 wells of only 20 μM representing the positive stimulator control. All wells were normalized with DMSO to a final concentration of 0.6% (0.2% end-concentration).
After 5 days, for detection of ATP which is directly proportional to the number of cells present per well, the CellTiter-Glo® 2.0 Reagent is used. After visual control for toxicity or precipitations of the tested compounds, the plates are equilibrated to room temperature for 45 minutes. CellTiter-Glo® 2.0 Reagent is equilibrated to room temperature as well. After equilibration, an equal amount of CellTiter-Glo reagent is added to the cells (80 µl/well) with an electronic multichannel pipette. Plates are placed on a rocking platform for 15 minutes at room temperature. After incubation, the bottom of the plates is sealed with backing tape. Luminescence is measured with PHERAstar FSX (interval time 0.5 sec, gain 3000, focal height 15 mm) and exported as CSV file for analysis in Genedata screener.
Calculations and Data Reporting CD3 and PBS plates were analysed separately in Genedata Screener using Roche Normalization PCT_POS_CTRL with DMSO set as Neutral Control and 20 μM of the reference compound A1 set as Stimulator Control/100%.
For CD3 conditions EC50 and Emax of the fitted sigmoidal curve were reported. If no curve could be fitted, the EC50 was reported as blank field and the Emax was based on individual data points. […] Compounds which activate unstimulated cells (see IL2 measurements) or compounds which negatively affected viability were flagged.

DGKzeta = DGKzeta (Homo sapiens, UniProt Q13574); assay: In vitro DGK inhibition assay (ADP-Glo, liposomes), DGKzeta; format: biochemical; design: hDGKzeta(1-928)-N-His; His (N); made in house; host or cells: Sf21 insect cells (baculovirus); details: 2 nM DGK ζ, 50 μM ATP, 125 uM DLG in liposomes, 1 hour reaction
DGKzeta, sequence (Q13574 whole entry): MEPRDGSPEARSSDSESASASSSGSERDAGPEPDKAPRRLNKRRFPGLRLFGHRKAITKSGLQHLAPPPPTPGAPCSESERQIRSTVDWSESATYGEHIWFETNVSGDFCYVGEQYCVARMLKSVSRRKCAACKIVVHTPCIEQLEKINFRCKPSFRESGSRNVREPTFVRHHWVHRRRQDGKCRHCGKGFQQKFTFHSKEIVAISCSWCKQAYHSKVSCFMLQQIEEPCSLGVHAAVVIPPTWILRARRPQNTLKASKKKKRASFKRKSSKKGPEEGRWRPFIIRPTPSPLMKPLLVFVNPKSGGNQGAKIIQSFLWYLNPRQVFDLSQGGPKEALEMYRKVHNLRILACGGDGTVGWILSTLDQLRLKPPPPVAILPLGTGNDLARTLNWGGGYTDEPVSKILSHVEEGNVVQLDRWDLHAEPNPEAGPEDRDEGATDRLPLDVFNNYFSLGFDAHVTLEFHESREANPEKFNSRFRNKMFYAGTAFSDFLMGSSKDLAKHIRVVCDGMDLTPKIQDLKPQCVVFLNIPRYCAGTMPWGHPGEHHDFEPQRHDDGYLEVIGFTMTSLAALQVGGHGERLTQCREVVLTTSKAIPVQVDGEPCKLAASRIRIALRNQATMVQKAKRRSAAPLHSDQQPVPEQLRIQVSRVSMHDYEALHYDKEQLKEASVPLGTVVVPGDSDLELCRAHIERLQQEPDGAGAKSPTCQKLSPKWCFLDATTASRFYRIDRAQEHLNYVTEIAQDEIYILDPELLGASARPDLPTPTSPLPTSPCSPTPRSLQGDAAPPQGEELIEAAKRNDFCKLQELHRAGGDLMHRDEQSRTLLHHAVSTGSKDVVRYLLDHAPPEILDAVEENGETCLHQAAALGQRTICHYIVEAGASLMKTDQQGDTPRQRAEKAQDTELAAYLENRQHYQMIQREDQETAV
Description: as §1
Purification of both enzymes was performed as previously described by Takahashi et al., PeerJ, 2018 (Takahashi, D.; Sakane, F. Expression and purification of human diacylglycerol kinase alpha from baculovirus-infected insect cells for structural studies. PeerJ 2018, 6, No. e5449).
as §2

[1] = Homo sapiens, T-cell, 120 h, 5 days, 20 μM reference compound A1 = 100%

| SMILES | IC50 (DGKalpha) | Emax (primary human T-cells; [1]) | EC50 (primary human T-cells; Homo sapiens, T-cell, 120 h) | IC50 (DGKzeta) | Emax proliferation (% activation) (primary human T-cells; 5 days, 20 μM reference compound A1 = 100%) | EC50 (primary human T-cells) |
| --- | --- | --- | --- | --- | --- | --- |
| CC(C)(c1nnc(-c2ccc3c(c2)N(Cc2ccc(-c4ccc(F)cn4)cc2)C(=O)[C@@H](N)CS3(=O)=O)o1)S(C)(=O)=O [Example 9, (3R)-3-amino-5-[[4-(5-fluoro-2-pyridyl)phenyl]methyl]-7-[5-(1-methyl-1-methylsulfonyl-ethyl)-1,3,4-oxadiazol-2-yl]-1,1-dioxo-2,3-dihydro-1λ6,5-benzothiazepin-4-one] | 0.944 µM | 82% | 2700 nM | 1320 nM |  |  |
| CC(C)(c1nc(-c2cc3c(cc2F)S(=O)(=O)C[C@H](N)C(=O)N3Cc2ccc(Cl)cc2)no1)S(C)(=O)=O [Example 43, (3R)-3-amino-5-[(4-chlorophenyl)methyl]-8-fluoro-7-[5-(1-methyl-1-methylsulfonyl-ethyl)-1,2,4-oxadiazol-3-yl]-1,1-dioxo-2,3-dihydro-1λ6,5-benzothiazepin-4-one] | 0.64 µM | 153% | 75 nM | 192 nM |  |  |
| CC1(c2nnc(-c3ccc4c(c3)N(Cc3ccc(Oc5ccccc5)cc3)C(=O)[C@@H](N)CS4(=O)=O)o2)CCCS1(=O)=O (stereo partly drawn) [Example 58, (3R)-3-amino-7-[5-(2-methyl-1,1-dioxo-thiolan-2-yl)-1,3,4-oxadiazol-2-yl]-1,1-dioxo-5-[(4-phenoxyphenyl)methyl]-2,3-dihydro-1λ6,5-benzothiazepin-4-one] | 3.38 µM | 112% | 1100 nM | 586 nM |  |  |
| COc1ccc(-c2ccc(CN3C(=O)[C@@H](N)CS(=O)(=O)c4ccc(-c5nnc(C(C)(C)S(C)(=O)=O)o5)cc43)cc2)c(C)c1 [Example 49, (3R)-3-amino-5-[[4-(4-methoxy-2-methyl-phenyl)phenyl]methyl]-7-[5-(1-methyl-1-methylsulfonyl-ethyl)-1,3,4-oxadiazol-2-yl]-1,1-dioxo-2,3-dihydro-1λ6,5-benzothiazepin-4-one] | 11.1 µM | 111% | 3130 nM | 1460 nM |  |  |
| CC(C)(c1nnc(-c2ccc3c(c2)N(Cc2ccc(Oc4cccc(Cl)c4)cc2)C(=O)[C@@H](N)CS3(=O)=O)o1)S(C)(=O)=O [Example 34, (3R)-3-amino-5-[[4-(3-chlorophenoxy)phenyl]methyl]-7-[5-(1-methyl-1-methylsulfonyl-ethyl)-1,3,4-oxadiazol-2-yl]-1,1-dioxo-2,3-dihydro-1λ6,5-benzothiazepin-4-one] | 20.3 µM | 127% | 1270 nM | 1100 nM |  |  |
| CC(C)(c1nnc(-c2ccc3c(c2)N(Cc2ccc(Oc4ccccc4)cc2)C(=O)[C@@H](N)CS3(=O)=O)o1)S(C)(=O)=O [Example 5, (3R)-3-amino-7-[5-(1-methyl-1-methylsulfonyl-ethyl)-1,3,4-oxadiazol-2-yl]-1,1-dioxo-5-[(4-phenoxyphenyl)methyl]-2,3-dihydro-1λ6,5-benzothiazepin-4-one] | 3.12 µM | 120% | 942 nM | 701 nM |  |  |
| CC(C)(c1nnc(-c2ccc3c(c2)N(Cc2ccc(OCc4ccccc4)cc2)C(=O)[C@@H](N)CS3(=O)=O)o1)S(C)(=O)=O [Example 11, (3R)-3-amino-5-[(4-benzyloxyphenyl)methyl]-7-[5-(1-methyl-1-methylsulfonyl-ethyl)-1,3,4-oxadiazol-2-yl]-1,1-dioxo-2,3-dihydro-1λ6,5-benzothiazepin-4-one] | 0.753 µM | 145% | 495 nM | 1060 nM |  |  |
| CC(C)(c1nnc(-c2ccc3c(c2)N(Cc2ccc(OC4CCCC4)cc2)C(=O)[C@@H](N)CS3(=O)=O)o1)S(C)(=O)=O [Example 16, (3R)-3-amino-5-[[4-(cyclopentoxy)phenyl]methyl]-7-[5-(1-methyl-1-methylsulfonyl-ethyl)-1,3,4-oxadiazol-2-yl]-1,1-dioxo-2,3-dihydro-1λ6,5-benzothiazepin-4-one] | 1.51 µM | 81% | 5360 nM | 820 nM |  |  |
| CC(C)(c1nnc(-c2ccc3c(c2)N(Cc2ccc(OCCC(F)(F)F)cc2)C(=O)[C@@H](N)CS3(=O)=O)o1)S(C)(=O)=O [Example 23, (3R)-3-amino-7-[5-(1-methyl-1-methylsulfonyl-ethyl)-1,3,4-oxadiazol-2-yl]-1,1-dioxo-5-[[4-(3,3,3-trifluoropropoxy)phenyl]methyl]-2,3-dihydro-1λ6,5-benzothiazepin-4-one] | 3.08 µM | 79% | 4540 nM | 1260 nM |  |  |
| CC(C)(c1nc(-c2cc3c(cc2F)[S+]([O-])C[C@H](N)C(=O)N3Cc2ccc(Oc3ccccc3)cc2)no1)S(C)(=O)=O (stereo partly drawn) [Example 51, (3R)-3-amino-8-fluoro-7-[5-(1-methyl-1-methylsulfonyl-ethyl)-1,2,4-oxadiazol-3-yl]-1-oxo-5-[(4-phenoxyphenyl)methyl]-2,3-dihydro-1λ4,5-benzothiazepin-4-one] | 2.29 µM |  |  | 371 nM | 67% | > 10000 nM |
| CC(C)(c1nc(-c2cc3c(cc2F)S(=O)(=O)C[C@H](N)C(=O)N3Cc2ccc(C3CCOCC3)cc2)no1)S(C)(=O)=O [Example 53, (3R)-3-amino-8-fluoro-7-[5-(1-methyl-1-methylsulfonyl-ethyl)-1,2,4-oxadiazol-3-yl]-1,1-dioxo-5-[(4-tetrahydropyran-4-ylphenyl)methyl]-2,3-dihydro-1λ6,5-benzothiazepin-4-one] | 8.05 µM | 167% | 3190 nM |  |  |  |
